According to US9226926B2, “Therapeutic agent for lower urinary tract disease” (N.M.A. Co., Ltd., priority 2013, dated 2016):

How the values were obtained:
Assay type in all cases: in vivo, SD rats
IL-6 = IL-6 in bladder tissue by RT-PCR; settings: rebamipide group vs CYP group
Procedure: (§1) To 12-week old male SD rats, cyclophosphamide (150 mg/kg) was intraperitoneally administered under isoflurane anesthetization. Immediately after that, rebamipide (1 mM or 10 mM, 300 μL) or vehicle was injected into the bladder, and the rats were held in the supine position for 1 hour. (3) TNFα, IL-6 and IL-1β which are inflammatory cytokines in bladder tissue were measured by RT-PCR, and an inflammation marker, MPO, was measured by ELISA.

[1] = system: rat model of chronic cystitis; experiment: Conscious cystometrography in rat model of chronic cystitis (cyclophosphamide); settings: 300 μL into the bladder, cyclophosphamide 150 mg/kg i.p., after two days
Procedure: In addition, experiments were performed for studying effects of the present invention on cystitis using a rat model of chronic cystitis. To 12-week old male SD rats, cyclophosphamide (150 mg/kg) was intraperitoneally administered under isoflurane anesthetization. Immediately after that, rebamipide (1 mM or 10 mM, 300 μL) or vehicle was injected into the bladder, and the rats were held in the supine position for 1 hour. (1) After two days, conscious cystometrography was performed (the saline perfusion flow rate: 0.04 ml/min) was performed.

MPO = MPO inflammation marker in bladder tissue by ELISA; settings: rebamipide group vs CYP group
Procedure: as §1

TNFα = TNFα in bladder tissue by RT-PCR; settings: rebamipide group vs CYP group
Procedure: as §1

[2] = system: rat model of chronic cystitis; experiment: H&E staining of removed bladder to score the degree of inflammation
Procedure: To 12-week old male SD rats, cyclophosphamide (150 mg/kg) was intraperitoneally administered under isoflurane anesthetization. Immediately after that, rebamipide (1 mM or 10 mM, 300 μL) or vehicle was injected into the bladder, and the rats were held in the supine position for 1 hour. (2) After two days, the bladder was removed, and H&E stained to score the degree of inflammation

IL-1β = IL-1β in bladder tissue by RT-PCR; settings: rebamipide group vs CYP group
Procedure: as §1

[3] = rebamipide group vs CYP group, after two days

In the case of `O=C(NC(Cc1cc(=O)[nH]c2ccccc12)C(=O)O)c1ccc(Cl)cc1` (stereo not drawn) [rebamipide, 2-(4-chlorbenzoylamino)-3-(2-quinolone-4-yl)propionic acid], the “level of IL-6 in the bladder tissue” value (IL-6) is reported as “increase was suppressed”, the urination interval ([1]; 1 mM) is reported as 14.4 ± 2.1 min and the urination interval ([1]; 10 mM) is reported as 21.1 ± 2.5 min. For the same compound, the “level of MPO in the bladder tissue” value (MPO) was “increase was suppressed”, the “level of TNFα in the bladder tissue” value (TNFα) was “increase was suppressed” and the invasive inflammatory cells [2, 3] was “significantly reduced”. The submucosal edema [2, 3] was “significantly reduced”, the bladder inflammation ([2]; rebamipide injected into the bladder, summary) was “suppressed” and the “level of IL-1β in the bladder tissue” value (IL-1β) was “increase was suppressed”.
